# Measurements reported in PMC7395068, “The evolution of strategies to minimise the risk of human drug-induced liver injury (DILI) in drug discovery and development” (Archives of Toxicology, 2020).
# Read-outs that look alike come from different tables or passages of the source.
# Columns and labels:
# [1] = test system: Upcyte human hepatocytes; conditions: In vitro Assay; ref Tolosa 2019; cited from earlier work
# [2] = test system: primary human hepatocytes, NIH3T3 fibroblasts, BSEP, CYP3A4; conditions: cited from earlier work
# [3] = test system: hLiMTs; test: Combined HCI (HCS) and cellular ATP 3D assay in hLiMTs; conditions: for AC50 / minimal effective concentration: Homo sapiens
# [4] = test system: HepG2 cells; conditions: cited from earlier work
# [5] = test system: hLiMTs; conditions: cited from earlier work
# [6] = test system: THLE or HepG2 cells, isolated mitochondria, BSEP; conditions: cited from earlier work
# [7] = plasma free fraction; cited from earlier work
# [8] = test system: isolated mouse liver mitochondria; conditions: In vitro Assay; ref Porceddu 2012; cited from earlier work
# [9] = test system: PHH; conditions: cited from earlier work
# [10] = test system: HepG2 cells, primary human hepatocytes; conditions: In vitro Assay; ref Garside 2014; cited from earlier work
# [11] = test system: PHH spheroids; conditions: cited from earlier work
# [12] = cited from earlier work
# [13] = test system: human hepatocytes; conditions: In vitro Assay; ref Xu 2008; cited from earlier work
# [14] = test system: HepaRG spheroids; test: Combined HCI (HCS) and cellular ATP 3D assay in HepaRG spheroids; conditions: for AC50 / minimal effective concentration: Homo sapiens
# Description: 3D spheroid models consisting of either primary human hepatocytes with non-parenchymal cells (hLiMT’s) or HepaRG cells (HepaRG spheroids) were assessed for size (MS), oxidative stress (OS), MMP, mitochondrial mass (MM), GSH and cellular ATP content following drug exposure. Fluorescent images are acquired using the confocal mode of an ArrayScan™ XTI HCI reader (ThermoScientific) following which cellular ATP was measured using 3D CellTiter-Glo (Promega).
# [15] = test system: HepG2 C3A spheroid, BSEP, Glu/Gal in HepG2 cells, bioactivation; conditions: cited from earlier work
# [16] = Plasma free fraction (fu) and unbound Cmax (Cmax,u); format: in vitro ADME, human; conditions: unbound plasma Cmax
# Description: The prediction of DILI severity was evaluated further using the 3D combined HCI assays using plasma-free fraction. The majority of fu values were obtained from literature, when unavailable in-house prediction was utilised. Unbound plasma Cmax concentrations (Cmax,u) were derived by multiplying total plasma Cmax with the corresponding free fraction (fu) for each compound.
# [17] = test system: HepG2 cells; conditions: cited from earlier work; remark: listed apart in the source
# [18] = cited from earlier work; remark: listed apart in the source
# [19] = test system: rBsep; conditions: In vitro Assay; ref Dawson 2012; cited from earlier work
# [20] = cited from earlier work; remark: listed apart in the source
# [21] = test system: THLE-Null and THLE-3A4 cells; conditions: In vitro Assay; ref Gustafsson 2014; cited from earlier work
# [22] = test system: HepG2 cells; conditions: In vitro Assay; ref O'Brien 2006; cited from earlier work
# [23] = ref Chen 2011; cited from earlier work
# [24] = In vitro Assay, ref Schadt 2015
# [25] = Microtissue model structural based (HCI), combined HCS and ATP, MEC < 25 × Cmax.tot cut-off
# [26] = In vitro Assay, ref Proctor 2017
# [27] = Modeled in vitro assays (cytotoxicity, mitochondrial dysfunction, BSEP), ref Aleo et al. 2019
# [28] = In vitro Assay, ref Persson 2013
structure (smiles),measurement,setting,value
"CC(C)C(=O)Nc1ccc([N+](=O)[O-])c(C(F)(F)F)c1 [flutamide, reference compound]",Upcytes multi donor assay 14day data,[1],+VE
same,"DILI in vitro assay prediction, Schadt (2015)","[2]; BSEP & Metabolism based, ref Schadt et al. 2015",+VE
same,Cellular toxicity (3T3 cells),[2]; [24],-VE
same,Combined Assay,[2]; [24],+VE
same,GSH adduct HML,[2]; [24],+VE
same,Hepatocyte cellular toxicity,[2]; [24],-VE
same,MitoTox 3T3,[2]; [24],+VE
same,TDI CYP3A4,[2]; [24],-VE
same,hBSEP inhibition,[2]; [24],-VE
same,AC50,[3]; read-out: ATP endpoint AC50,29.9 µM
same,minimal effective concentration,[3]; read-out: ATP endpoint MEC,18.5 µM
same,AC50,[3]; read-out: HCS endpoint AC50,43.5 µM
same,minimal effective concentration,[3]; read-out: HCS endpoint MEC,3.63 µM
same,DILI prediction hLiMTs (HCS-MEC),[3]; [25],+VE (MEC < 25 × Cmax.tot cut-off)
same,hLiMTs <25x Avg Cmax ATP,"[3]; hLiMTs, ATP endpoint, cut-off <25x Avg Cmax",+ve
same,hLiMTs <100x Avg Cmaxu ATP,"[3]; hLiMTs, ATP endpoint, cut-off <100x Avg Cmaxu",+ve (<100x Avg Cmaxu)
same,hLiMTs <25x Avg Cmax HCS,"[3]; hLiMTs, HCS endpoints, cut-off <25x Avg Cmax",+ve
same,hLiMTs <100x Avg Cmaxu HCS,"[3]; hLiMTs, HCS endpoints, cut-off <100x Avg Cmaxu",+ve (<100x Avg Cmaxu)
same,hLiMTs <25x Avg Cmax All,"[3]; hLiMTs, all endpoints (ATP and HCS), cut-off <25x Avg Cmax",+ve
same,hLiMTs Cmax max All,"[3]; hLiMTs, all endpoints, Cmax max used",+ve
same,hLiMTs Cmax min All,"[3]; hLiMTs, all endpoints, Cmax min used",+ve
same,hLiMTs <10 uM All,"[3]; hLiMTs, all endpoints, cut-off <10 uM",+ve (<10 uM)
same,hLiMTs <100x Avg Cmaxu All,"[3]; hLiMTs, all endpoints, cut-off <100x Avg Cmaxu",+ve (<100x Avg Cmaxu)
same,Structural based (HCI),"[4]; In vitro Assay, ref Tolosa 2012",+VE
same,"DILI in vitro assay prediction, Tolosa (2012)","[4]; Structural based (HCI), HepG2, ref Tolosa et al. 2012",+VE
same,hLiMTs ATP <100uM,[5]; [26],+VE (IC50 threshold of 100 µM)
same,"hLiMTs/100xCmax, Proctor (2017)","[5]; hLiMTs, ATP, IC50 < 100 × Cmax.tot, ref Proctor et al. 2017",+VE (IC50 < 100 × Cmax.tot)
same,"hLiMTs/100uM, Proctor (2017)","[5]; hLiMTs, ATP, IC50 threshold 100 µM, ref Proctor et al. 2017",+VE (IC50 threshold of 100 µM)
same,Partition Hybrid HRM Score,"[6]; In vitro Assay, ref Aleo 2019",+VE
same,Ro2 Hybrid HRM Score,"[6]; In vitro Assay, ref Aleo 2019",+VE
same,"Partition Hybrid HRM Score ≥4, Aleo (2019)",[6]; [27],+VE (Partition Hybrid HRM Score ≥4)
same,"Partition Hybrid HRM Score ≥8, Aleo (2019)",[6]; [27],+VE (Partition Hybrid HRM Score ≥8)
same,"Rule of Two hybrid HRM Score ≥3, Aleo (2019)",[6]; [27],+VE (Rule of Two hybrid HRM Score ≥3)
same,"Rule of Two hybrid HRM Score ≥8, Aleo (2019)",[6]; [27],+VE (Rule of Two hybrid HRM Score ≥8)
same,fu,[7],0.050
same,in vitro data EC2<=1x Cmax,[8],+VE
same,in vitro data EC20<=2uM,[8],-VE
same,"PHH/100xCmax, Proctor (2017)","[9]; 2D PHH, ATP, IC50 < 100 × Cmax.tot, ref Proctor et al. 2017",+VE (IC50 < 100 × Cmax.tot)
same,"PHH/100uM, Proctor (2017)","[9]; 2D PHH, ATP, IC50 threshold 100 µM, ref Proctor et al. 2017",+VE (IC50 threshold of 100 µM)
same,PHH ATP <100uM,[9]; [26],+VE (IC50 threshold of 100 µM)
same,Cluster 1-6 +VE Assay,[10],+VE
same,hLiMTs ATP <20 x Cmax,"[11]; In vitro Assay, ref Vorrink 2018",+VE (IC20 < 20 × Cmax.tot cut-off)
same,"DILI in vitro assay prediction, Vorrink (2018)","[11]; PHH spheroids, ATP, 14 days, IC20 < 20 × Cmax.tot, ref Vorrink et al. 2018",+VE (IC20 < 20 × Cmax.tot cut-off)
same,DILI severity category (Chen et al. [2016]),"[12]; LTKB DILIrank category, ref Chen et al. 2016",Most
same,DILI severity category (Chen 2016),"[12]; human DILI classification, LTKB DILIrank, ref Chen et al. 2016",Most
same,DILI severity category,"[12]; human DILI severity, ref Chen et al.",Most
same,"DILI +VE (5-8), DILI -VE (-4)",[12]; ref Chen 2016,+VE
same,DILI severity category,[12]; ref Chen 2016,vMost-DILI-Concern
same,Structural based (HCI),[13],-VE
same,HepaRG <25x Avg Cmax ATP,"[14]; HepaRG, ATP endpoint, cut-off <25x Avg Cmax",+ve
same,HepaRG <100x Avg Cmaxu ATP,"[14]; HepaRG, ATP endpoint, cut-off <100x Avg Cmaxu",+ve (<100x Avg Cmaxu)
same,HepaRG <25x Avg Cmax HCS,"[14]; HepaRG, HCS endpoints, cut-off <25x Avg Cmax",+ve
same,HepaRG <100x Avg Cmaxu HCS,"[14]; HepaRG, HCS endpoints, cut-off <100x Avg Cmaxu",+ve (<100x Avg Cmaxu)
same,HepaRG <25x Avg Cmax All,"[14]; HepaRG, all endpoints (ATP and HCS), cut-off <25x Avg Cmax",+ve
same,HepaRG Cmax max All,"[14]; HepaRG, all endpoints, Cmax max used",+ve
same,HepaRG Cmax min All,"[14]; HepaRG, all endpoints, Cmax min used",+ve
same,HepaRG <10 uM All,"[14]; HepaRG, all endpoints, cut-off <10 uM",+ve (<10 uM)
same,HepaRG <100x Avg Cmaxu All,"[14]; HepaRG, all endpoints, cut-off <100x Avg Cmaxu",+ve (<100x Avg Cmaxu)
same,AC50,"[14]; HepaRG, read-out: ATP endpoint AC50",14.9 µM
same,minimal effective concentration,"[14]; HepaRG, read-out: ATP endpoint MEC",7.75 µM
same,AC50,"[14]; HepaRG, read-out: HCS endpoint AC50",42.7 µM
same,minimal effective concentration,"[14]; HepaRG, read-out: HCS endpoint MEC",13.9 µM
same,DILI prediction HepaRG spheroids (HCS-MEC),[14]; [25],+VE (MEC < 25 × Cmax.tot cut-off)
same,"Bayesian Machine Learning DILI prediction, Williams (2019)","[15]; Bayesian modeling, ref Williams et al. 2019",+VE
same,Bayesian Machine Learning,"[15]; In vitro Assay, ref Williams 2019",+VE
same,"Human plasma Cmax,u",[16],0.272 µM
same,Cluser analysis,[17]; [28],-VE
same,Structural based (HCI),[17]; [28],-VE
same,"DILI in vitro assay prediction, Persson (2013)","[17]; Structural based (HCI), HepG2, ref Persson et al. 2013",-VE
same,Cmax,"[18]; read-out: Cmax.tot, value used for normalisation, ref O'Brien et al. 2006",6 µM
same,Cmax,"[18]; read-out: Cmax.tot, value used for normalisation, ref Xu et al. 2008",0.36 µM
same,Cmax,"[18]; read-out: Human plasma Cmax, total plasma Cmax.tot, median of 9 literature references",5.43 µM
same,Inhibition of rBsep cutoff<1& cmax u>.2,[19],+VE
same,Inhibition of rBsep cutoff<3,[19],+VE
same,Assigned DILI category,"[20]; Chen et al. 2016 or literature alignment, ref Chen et al. 2016",3
same,In vivo DILI,[20]; […],+VE
same,In vivo DILI,[20]; ref Aleo 2019,+VE
same,In vivo DILI,[20]; ref Dawson 2012,+VE
same,In vivo DILI,[20]; ref Garside 2014,+VE
same,In vivo DILI,[20]; ref Gustafsson 2014,+VE
same,In vivo DILI,[20]; ref O'Brien 2006,+VE
same,In vivo DILI,[20]; ref Persson 2013,+VE
same,In vivo DILI,[20]; ref Porceddu 2012,-VE
same,In vivo DILI,[20]; ref Proctor 2017,+VE
same,In vivo DILI,[20]; ref Schadt 2015,+VE
same,In vivo DILI,[20]; ref Tolosa 2012,+VE
same,In vivo DILI,[20]; ref Tolosa 2019,+VE
same,In vivo DILI,[20]; ref Vorrink 2018,+VE
same,In vivo DILI,[20]; ref Williams 2019,+VE
same,In vivo DILI,[20]; ref Xu 2008,+VE
same,THLE-Null,[21],-VE
same,THLE-Null/3A4,[21],-VE
same,Structural based (HCI),[22],+VE
same,DILI Score (FDA) (1-8),[23],8
